Read-outs that look alike come from different tables or passages of the source.
Assays:
[1] = tested on: E. coli TG1 + pBGS18 + CMY-2; assay: MIC broth microdilution, ceftazidime with or without inhibitor; format: cell-based, Escherichia coli; conditions: for MIC of ceftazidime in the presence of inhibitor: CMY-2 (Class C, ESBL), inhibitor concentration 16 μg mL^–1; for MIC: Escherichia coli
[2] = tested on: K. pneumoniae ΔompK35/36+ pBGS18+ OXA-48; assay: MIC broth microdilution, imipenem with or without inhibitor; format: cell-based, Klebsiella pneumoniae; conditions: for MIC of imipenem in the presence of inhibitor: OXA-48 (Class D, carbapenemase), inhibitor concentration 16 μg mL^–1; for MIC: Klebsiella pneumoniae
[3] = tested on: E. coli TG1 + pBGS18 + DHA-1; assay: MIC broth microdilution, ceftazidime with or without inhibitor; format: cell-based, Escherichia coli; conditions: for MIC of ceftazidime in the presence of inhibitor: DHA-1 (Class C, ESBL), inhibitor concentration 16 μg mL^–1; for MIC: Escherichia coli
[4] = tested on: E. coli MG1655 + pBGS18 + CTX-M-2; assay: as above; format: cell-based, Escherichia coli; conditions: for MIC of ceftazidime in the presence of inhibitor: CTX-M-2 (ESBL), inhibitor concentration 16 μg mL^–1
[5] = tested on: E. coli TG1 + pBGS18 + FOX-4; assay: as above; format: cell-based, Escherichia coli; conditions: for MIC of ceftazidime in the presence of inhibitor: FOX-4 (Class C, ESBL), inhibitor concentration 16 μg mL^–1; for MIC: Escherichia coli
[6] = tested on: E. coli MG1655 + pBGS18 + CTX-M-14; assay: MIC broth microdilution, ampicillin with or without inhibitor; format: cell-based, Escherichia coli; conditions: CTX-M-14 (Class A, ESBL); inhibitor concentration 16 μg mL^–1; 20 h, 37 °C
[7] = tested on: P. aeruginosa PAO ΔampD (PDC-1); assay: MIC broth microdilution, ceftazidime with or without inhibitor; format: cell-based; conditions: Pseudomonas aeruginosa
[8] = read-out: MIC of ceftazidime without an inhibitor
[9] = read-out: MIC of ceftazidime, strain without β-lactamase

Structure (SMILES)	MIC of ceftazidime in the presence of inhibitor [1]	MIC of imipenem in the presence of inhibitor [2]	MIC of ceftazidime in the presence of inhibitor [3]	MIC of ceftazidime in the presence of inhibitor [4]	MIC of ceftazidime in the presence of inhibitor [5]	MIC of ampicillin in the presence of inhibitor [6]	further results
C[C@]1(COC(=O)CCc2ccc(O)c(O)c2)[C@H](C(=O)[O-])N2C(=O)/C(=C/c3ccccn3)[C@H]2S1(=O)=O.[Na+] [Compound 3]	≤0.06 μg mL^–1	16 μg mL^–1	≤0.06 μg mL^–1	2 μg mL^–1	0.12 μg mL^–1	32 μg mL^–1	
C[C@@H](O)[C@H]1C(=O)N2C(C(=O)O)=C(SCCN=CN)C[C@H]12 [IP, imipenem, reference compound]							MIC ([2]; read-out: MIC of imipenem without an inhibitor): 64 µg/mL; MIC ([2]; read-out: MIC of imipenem, strain without β-lactamase): 0.5 µg/mL
C[C@]1(COC(=O)c2ccncc2O)[C@H](C(=O)[O-])N2C(=O)/C(=C/c3ccccn3)[C@H]2S1(=O)=O.[Na+] [Compound 7]	1 μg mL^–1	16 μg mL^–1	4 μg mL^–1	256 μg mL^–1	0.12 μg mL^–1	1024 μg mL^–1	
CC(C)(O/N=C(\C(=O)N[C@@H]1C(=O)N2C(C(=O)[O-])=C(C[n+]3ccccc3)CS[C@H]12)c1csc(N)n1)C(=O)O [CAZ, ceftazidime, reference compound]							MIC [1, 8]: 16 µg/mL; MIC [1, 9]: ≤ 0.06 µg/mL; MIC [7, 8]: 8 µg/mL; MIC [7, 9]: 1 µg/mL; MIC [3, 8]: 32 µg/mL; MIC [3, 9]: ≤ 0.06 µg/mL; MIC ([4]; Escherichia coli, MG1655, read-out: MIC of ceftazidime without an inhibitor): 1020 µg/mL; MIC [5, 8]: > 64 µg/mL; MIC [5, 9]: ≤ 0.06 µg/mL
CC1(C)[C@H](C(=O)[O-])N2C(=O)/C(=C/c3cc(CCCOC(=O)Cc4ccc(O)c(O)c4)ccn3)[C@H]2S1(=O)=O.[Na+] [Compound 8]	4 μg mL^–1	32 μg mL^–1	8 μg mL^–1	256 μg mL^–1	8 μg mL^–1	1024 μg mL^–1	
C[C@]1(COC(=O)c2cc(Cl)ccc2O)[C@H](C(=O)[O-])N2C(=O)/C(=C/c3ccccn3)[C@H]2S1(=O)=O.[Na+] [Compound 5]		16 μg mL^–1	0.12 μg mL^–1	64 μg mL^–1	16 μg mL^–1	512 μg mL^–1	

Source: paper PMC11191083 (ACS Omega, 2024)
